The nature of data set [1]: Human Caco-2 bidirectional permeability A to B and B to A. The format is in vitro ADME.
A short description of data set [2]: Human Caco-2 passive permeability A to B Papp. Type of data set: in vitro ADME. The following applies: apical pH 6.5, basolateral pH 7.4, with efflux transporter inhibitor cocktail. For orientation: Passage across Caco-2 layers is used to estimate intestinal permeability.
In data set [3] the target is T1, Estrogen Receptor (ERα) in MCF-7 cells (Homo sapiens (Human), UniProt P03372). The data set is described as follows: MCF-7 ER down-regulation assay (immuno-fluorescence). The format is cell-based. Conditions: 18-22 hours incubation.
T1 sequence (P03372 whole entry): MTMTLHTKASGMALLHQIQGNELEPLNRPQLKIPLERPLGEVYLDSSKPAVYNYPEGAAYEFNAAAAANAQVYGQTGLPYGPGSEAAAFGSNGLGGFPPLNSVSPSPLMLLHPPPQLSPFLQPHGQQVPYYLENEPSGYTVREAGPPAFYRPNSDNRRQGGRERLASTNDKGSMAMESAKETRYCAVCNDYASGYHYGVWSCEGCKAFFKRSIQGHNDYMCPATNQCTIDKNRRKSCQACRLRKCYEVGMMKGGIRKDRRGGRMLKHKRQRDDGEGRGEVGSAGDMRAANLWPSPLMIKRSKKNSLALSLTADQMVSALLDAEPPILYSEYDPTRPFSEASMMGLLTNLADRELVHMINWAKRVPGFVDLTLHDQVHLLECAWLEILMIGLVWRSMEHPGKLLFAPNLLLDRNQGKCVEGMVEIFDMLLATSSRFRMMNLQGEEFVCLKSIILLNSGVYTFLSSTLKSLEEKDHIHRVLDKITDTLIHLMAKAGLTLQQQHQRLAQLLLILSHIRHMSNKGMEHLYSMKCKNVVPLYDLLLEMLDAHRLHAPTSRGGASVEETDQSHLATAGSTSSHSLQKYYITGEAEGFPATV
The target in data set [4] is estrogen receptor (ERα) in CAMA-1 cells (Homo sapiens (Human), UniProt P03372). The data set is described as follows: Western blotting assay, CAMA-1 cells. Conditions: compound 100 nM, 48 h, normalised to 100 nM fulvestrant (100%). Type of data set: cell-based. In general terms: A western blot detects proteins with antibodies after separation by electrophoresis.
estrogen receptor (ERα) in CAMA-1 cells, sequence (P03372 whole entry): as above
A short description of data set [5]: Human plasma protein binding (equilibrium dialysis). Type of data set: in vitro ADME. Conditions: dialysis 18 hours. In general terms: Equilibrium dialysis compares concentrations on both sides of a semipermeable membrane.
The nature of another data set: physchem. The following applies: 1-octanol/aqueous buffer, pH 7.4.
The target in data set [6] is T1, Estrogen Receptor (ERα) in MCF-7 cells. Put plainly: Western blotting assay, MCF-7 cells. Type of data set: cell-based. Conditions: compound 100 nM, 48 h, normalised to 100 nM fulvestrant (100%).
Data set [7] is described as follows: Thermodynamic solubility (shake flask). Type of data set: physicochemical. The following applies: aqueous phosphate buffer, 25 °C, pH 7.4, aqueous buffer, thermodynamic from solid, aqueous phosphate buffer pH 7.4, 24 hours.
A short description of data set [8]: Human hepatocyte assay (metabolic stability). The following applies: cryopreserved pooled human hepatocytes (LiverPool 10 Donor), in vitro intrinsic clearance. Type of data set: in vitro ADME.

Structures are written as SMILES. Converted amounts (≈) assume the structure as drawn.

One may read the Papp as the rate of passage across a membrane or cell layer, normalised by area and donor concentration. A high value points to ready permeation. What is called efflux ratio is the permeability from basolateral to apical divided by that in the opposite direction, in the common usage. By IC50 is commonly meant the point on the concentration scale where inhibition reaches its midpoint. The low end stands for inhibition by little substance, the high end for a need for much substance. Usually logD stands for lipophilicity at a set pH, counting ionised and neutral species. Higher therefore signals higher lipophilicity. As a reminder, the solubility is the concentration that dissolves in the medium under given conditions. Usually hepatocyte CLint stands for the rate of metabolic loss divided by the concentration. A higher hepatocyte CLint goes with rapid turnover. With `COc1cc(OCCNCCCF)ncc1[C@@H]1c2[nH]c3ccccc3c2C[C@@H](C)N1CC(F)F` [Example 40, N-(2-((5-((1R,3R)-2-(2,2-difluoroethyl)-3-methyl-2,3,4,9-tetrahydro-1H-pyrido[3,4-b]indol-1-yl)-4-methoxypyridin-2-yl)oxy)ethyl)-3-fluoropropan-1-amine], the Papp at 2 h in data set [1] (Caco-2, 2 hours, pH 7.4) worked out at 3.2 ×10⁻⁶ cm/s; in data set [2], 14 ×10⁻⁶ cm/s. Besides, the efflux ratio at 2 h in data set [1] (Papp(B-A)/Papp(A-B), Caco-2, pH 7.4) is 1.8. In [3], this molecule showed an IC50 of 0.17 nM. In addition, in data set [4], the “CAMA1 Western % ER deg vs Fv” value is 85%. Also, the “Human plasma protein binding (% free)” value in [5] turned out to be 5.8 % free. In the data set “physchem”, this molecule gave a logD of 2.7. The “MCF7 Western % ER deg vs Fv” value in [6] is on record as 90%. The solubility at 24 h in [7] is 854 µM (≈ 407 µg/mL). The same molecule displayed a hepatocyte CLint at 1 µM in data set [8] of 5 µL/min/1e6 cells.

The values above are taken from US10149839B2, “Chemical compounds” (AstraZeneca AB, priority 2016, dated 2018).
